Measured values: patent US20250170281A1, “ANTI-CANCER TREATMENT WITH A RADIOACTIVE PARP INHIBITOR” (The Chancellor, Masters and Scholars of the University of …, priority 2022, published 2025)
“Also recorded” adds a separate entry of the source.

Tests used:
[1] = target: PARP6 (Homo sapiens, UniProt Q2NL67); assay: PARP family enzymatic activity screening at 10 nM (BPS assay kits); conditions: lesser degree than olaparib, rucaparib and other established PARP inhibitors
[2] = system: U87MG cells; assay: Colony formation assay; assay type: cell-based, Human; conditions: for effect on clonogenic survival: cold compounds at amounts equivalent to [123I]CC1
Method: (§1) Separate aliquots of cells were irradiated (0-10 Gy, using a ^137Cs irradiator, 0.8 Gy/min). Cells were then washed, a fraction of which was then transferred to 6-well plates containing 2 mL of growth medium, and colony formation was measured two weeks after treatment. Colony numbers were normalized to the number of cells transferred to the plates to obtain plating efficiency, which was in turn normalized to that of untreated cells.
(§2) Following the protocol outlined in part A hereinbefore, colony formation assays were conducted on aliquots of PSN1, U87MG and MDA-MB-231 cells.

[3] = system: PSN1 cells; assay: Colony formation assay; assay type: cell-based; conditions: for effect on clonogenic survival: PSN1, cold compounds at amounts equivalent to [123I]CC1
Method: as §1, §2

[4] = system: PSN1 xenografts; assay: In vivo therapy study; conditions: single i.v. 3 MBq
Method: […]. Mice and tumour sizes were monitored daily. Study endpoint was determined based humane endpoints, including a tumour size >1200 mm^3, or weight loss >15%.
[…]. Mice were monitored daily. Tumour sizes were determined by calliper. Study endpoints were based on humane endpoints, including a tumour size >1000 mm^3, or weight loss >15%.

[5] = system: MDA-MB-231 xenografts; assay: In vivo therapy study; set-up: species or system mice; conditions: single i.v. 3 MBq
Method: (§3) Mice were monitored daily. Tumour sizes were determined by calliper. Study endpoints were based on humane endpoints, including a tumour size >1000 mm^3, or weight loss >15%.

[6] = system: U87MG xenografts; assay: In vivo therapy study; set-up: species or system mice; conditions: single i.v. 3 MBq
Method: as §3

[7] = system: PSN1 cells; assay: In vitro uptake and specificity of [123I]CC1; assay type: cell-based; conditions: for uptake of [123I]CC1 on addition of cold blocker: PSN1, blocker 100 μM, 45 min before tracer
Method: (§4) AsPC1 (1×10^5 cells/well), PSN1 cells (7.5×10^4 cells/well) or U87MG (1×10^5 cells/well) were seeded separately in 24-well plates containing growth medium and allowed to adhere for at least 20 h. Cells were washed and exposed to cold, unlabelled PARP inhibitors (100 μM, in a total of 270 μL growth medium) for 45 min at 37° C. […] Cell culture medium was removed, and cells washed with PBS. Cells were lysed using RIPA buffer ([…] Tris pH 8.0, 1% NP40, 0.5% sodium deoxycholate, 0.1% sodium dodecyl sulphate, and 150 mM sodium chloride) for 15 min at room temperature, and the amount of ^123I in cell lysates was measured using an automated gamma counter (PerkinElmer). […] The amount of ^123I in cell lysates was measured as above.
(§5) AsPC1 (1×10^5 cells/well), PSN1 (7.5×10^4 cells/well) or U87MG (1×10^5 cells/well) were seeded as described in part A hereinbefore. CAPAN-1 cells (7.5×10^4 cells/well) were seeded following the same protocol described in part A hereinbefore.

[8] = system: AsPC1 cells; assay: In vitro uptake and specificity of [123I]CC1; assay type: cell-based; conditions: for uptake of [123I]CC1 on addition of cold blocker: AsPC1, blocker 100 μM, 45 min before tracer
Method: as §4, §5

[9] = system: U87MG cells; assay: In vitro uptake and specificity of [123I]CC1; assay type: cell-based, Human; conditions: for uptake of [123I]CC1 on addition of cold blocker: blocker 100 μM, 45 min before tracer
Method: as §4, §5

[10] = Toxicology: H&E staining of normal tissues; assay type: in vivo, C57/Bl6 mice; conditions: 3 MBq i.v.
Description: Liver, spleen, kidneys and intestines were investigated by an experienced veterinary pathologist and compared to age-matched non-treated control animals.
Tissues were further stained for γH2AX to investigate DNA double strand break damage, and livers were additionally stained for PAS, as a marker for glycogen storage.

[11] = system: PSN1 xenografts; assay: Biodistribution of [123I]CC1 in xenograft-bearing mice; assay type: in vivo; conditions: for tumour uptake: 1 h after i.v. 3 MBq
Method: PSN1 cells were harvested using trypsin, washed twice with PBS, and reconstituted in PBS: Matrigel® Matrix High Concentration (1:1). Cell suspensions (PSN1: 2×10^6 […]) were injected subcutaneously in the front right flank of the mice, and allowed to grow to a size of approximately 200 mm^3.
To evaluate the specificity of tumour uptake, an excess of unlabelled rucaparib (0.5 mg) was co-administered as blocking agent. Either after 60 or 120 min after radiolabelled compound injection, animals were euthanised. Selected organs, tissues and blood were removed, and the percentage of the injected dose per gram of tissue (% ID/g) was determined, using a HIDEX automated gammacounter.
(§6) Following the protocol described in part A hereinbefore, PSN1, U87MG, or MDA-MB-231 cells were harvested using trypsin, washed twice with PBS, and reconstituted in PBS: Matrigel® Matrix High Concentration (1:1). Cell suspensions were injected subcutaneously in the hind right flank and allowed to form tumours. […] To evaluate the specificity of tumour uptake, an excess of unlabelled rucaparib (0.5 mg) was co-administered as a blocking agent in some animals. Either 60 or 120 min after radiolabelled compound injection, animals were euthanised (n=3 per group). Selected organs, tissues and blood were removed, and the percentage of the injected activity per gram of tissue (% IA/g) was determined, using a HIDEX automated gammacounter.

[12] = system: U87MG cells; assay: Flow cytometry of nuclear protein expression post [123I]CC1 treatment; assay type: cell-based, Human; conditions: 24 h after 1-hour exposure, 50 kBq
Method: (§7) AsPC1, PSN1 or U87MG (1×10^6 cells/well in 2 mL growth medium) were seeded in 6-well plates and allowed to adhere for at least 20 h. […] Cells were harvested using trypsin-EDTA solution and washed with FACS buffer (PBS, 2% FBS, 1 mM EDTA, 0.1% NaN3) and centrifuged at 500×g for 5 min. Immunostaining was performed using the Foxp3/transcription factor staining buffer set (eBioscience™, USA). Intracellular staining was conducted in permeabilization buffer for 30 min at 4° C. in the dark using the following antibodies separately: AF488-conjugated anti-PARP-1 (1:100; sc-80070), AF594-conjugated anti-PARP-2 (1:100; sc-393310) and AF488-conjugated anti-PARP-3 (1:100; sc-390771) from Santa Cruz Biotechnology Inc. (USA), AF488-conjugated anti-IMPDH2 (1:500; ab-200770) from Abcam plc. (UK), yH2AX (1:1000; JBW301 Merck-Millipore). Fixable viability dye ef780 (1:4000; eBioscience™; 65-0865-14) was used for live/dead discrimination. Fixation of immunostained cells was performed for 15 min at RT. Flow cytometry was conducted using a CytoFLEX flow cytometer (Beckman Coulter, USA), with appropriate laser and filters, positive and negative controls. Data were analyzed using FlowJo™ (Tree Star Inc., BD Biosciences, USA).
(§8) Quantification of AsPC1, PSN1 or U87MG cells was conducted following the protocol outlined in part A hereinbefore. Relative expression of PARP1 and 2 was measured using flow cytometry. γH2AX expression, as a measure for DNA double strand break damage, was assessed in a similar manner.

[13] = system: PSN1 cells; assay: as above; assay type: cell-based; conditions: PSN1, 24 h after 1-hour exposure, 50 kBq
Method: as §7, §8

[14] = system: AsPC1 cells; assay: as above; assay type: cell-based; conditions: 50 kBq
Method: as §7, §8

[15] = Blood clearance by VOI analysis of dynamic imaging; assay type: in vivo; conditions: PSN1 xenograft-bearing mice, i.v. 3 MBq; CI95 1.64-2.09 min
Method: Images were analysed using VOI-based analysis, using PMOD.
In a selected number of animals (n=3), animals were anaesthetised using 2% isoflurane, and dynamic SPECT/CT imaging was performed over 1 h, using a MILabs VECTor4 camera, equipped with an ultra-high-resolution rat/mouse collimator (1.8 mm), followed by a cone-beam CT scan (55 kV, 0.19 mA) for anatomical reference and attenuation correction. Anesthesia was maintained using 2.5% isoflurane throughout the duration of image acquisition. SPECT images were reconstructed using U-SPECT-Rec3.22 software (MILabs, Utrecht, The Netherlands), applying a pixel-based algorithm, ordered subset expectation maximisation (OSEM) with 4 subsets, 4 iterations and 0.6 mm voxel size for lodine-123 (energy window settings 141.3-172.7 keV). Reconstructed SPECT and CT images were viewed and analyzed using PMOD v.3.37 (PMOD Technologies, Zurich, Switzerland).

[16] = system: MDA-MB-231 xenografts; assay: Biodistribution of [123I]CC1 in xenograft-bearing mice; assay type: in vivo; conditions: 2 h after i.v. 3 MBq
Method: as §6

[17] = system: U87MG xenografts; assay: as above; assay type: in vivo; conditions: 2 h after i.v. 3 MBq
Method: as §6

[18] = AsPC1, 24 h after 1-hour exposure

Sequence of PARP6 (Q2NL67 whole entry): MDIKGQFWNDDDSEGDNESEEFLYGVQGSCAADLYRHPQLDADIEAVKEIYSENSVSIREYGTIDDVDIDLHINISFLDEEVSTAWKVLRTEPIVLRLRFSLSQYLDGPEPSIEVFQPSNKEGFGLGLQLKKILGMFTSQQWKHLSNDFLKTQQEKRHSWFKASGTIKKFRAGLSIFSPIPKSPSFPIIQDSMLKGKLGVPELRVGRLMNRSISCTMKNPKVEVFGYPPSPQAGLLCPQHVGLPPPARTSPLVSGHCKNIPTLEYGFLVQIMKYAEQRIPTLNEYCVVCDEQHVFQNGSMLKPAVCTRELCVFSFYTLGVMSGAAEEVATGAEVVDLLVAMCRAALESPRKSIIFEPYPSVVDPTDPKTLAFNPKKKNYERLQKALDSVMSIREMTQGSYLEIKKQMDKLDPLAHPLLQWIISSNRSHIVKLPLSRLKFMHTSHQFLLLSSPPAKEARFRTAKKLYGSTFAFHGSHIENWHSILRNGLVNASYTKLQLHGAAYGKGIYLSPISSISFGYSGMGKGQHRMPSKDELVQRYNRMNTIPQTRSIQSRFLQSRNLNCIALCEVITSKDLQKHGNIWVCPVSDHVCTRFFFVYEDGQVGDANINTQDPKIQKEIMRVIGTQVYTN

O=C(c1cc(Cc2n[nH]c(=O)c3ccccc23)ccc1[123I])N1CCN(C(=O)C2CC2)CC1 [CC1]
inhibition of PARP6 catalytic activity by a single dose [1]: able to inhibit
effect on clonogenic survival [2]: no effect
effect on clonogenic survival [3]: no effect

O=C(c1cc(Cc2n[nH]c(=O)c3ccccc23)ccc1[123I])N1CCN(C(=O)C2CC2)CC1 [[^123I]CC1]
tumour growth ([4]; PSN1 xenografts, vs cold unlabelled CC1, p=0.04): significant inhibition of tumour growth
gross toxicity (weight loss of the mice) [4]: without signs of gross toxicity
tumour growth response [5]: not affected in their growth
tumour growth response [6]: responded less than PSN-1 xenografts
time at which cell uptake plateaus ([7]; PSN1, 37° C.): 1 h
cell uptake ([7]; PSN1, Part B): around 0.3 fmol/cell
time at which cell uptake plateaus ([8]; AsPC1, 37° C.): 1 h
cell uptake ([8]; AsPC1, Part B): around 0.3 fmol/cell
time at which cell uptake plateaus ([9]; 37° C.): 1 h
cell uptake ([9]; Part B): around 0.3 fmol/cell
shrunken (pyknotic) hepatocytes in liver [10]: 0.1-0.2 per field
histopathology, intestines ([10]; 24 h and 28 days): minimal proprial infiltration by lymphocytes and plasma cells
histopathology, kidneys ([10]; 24 h and 28 days): no observable changes
histopathology, liver: the one marked effect ([10]; 24 h and 28 days): diffuse cytoplasmic pallor/rarefaction
histopathology, spleen ([10]; 24 h and 28 days): mild to moderate numbers of hemosiderophages
clearance pattern (high uptake in liver and intestines) ([11]; PSN1 xenograft-bearing mice, 3 MBq, 20 GBq/μmol): hepatobiliary clearance pattern
tumour uptake ([11]; PSN-1 xenografts, Part A): 0.9±0.06 % ID/g
tumour uptake ([11]; PSN-1 xenografts, Part B): 0.9±0.06 % IA/g
amount remaining in tumour ([11]; PSN-1 xenografts, 24 h after injection): 0.033±0.017 % IA/g
amount from which clonogenic survival is significantly reduced ([2]; 1 h exposure): ≥ 10 Bq
clonogenic survival IC50 ([2]; in 200 μl, 60 min exposure): 631±35 Bq
PARP1 expression [12]: increased expression
PARP2 expression [12]: increased expression
γH2AX expression (DNA double strand breaks) [12]: increased significantly; also recorded: increased markedly
PARP1 expression [13]: increased expression
PARP2 expression [13]: increased expression
γH2AX expression (DNA double strand breaks) [13]: increased significantly; also recorded: increased markedly
PARP1 expression [14, 18]: increased expression
PARP2 expression [14, 18]: increased expression
γH2AX expression (DNA double strand breaks) ([14]; AsPC1, 24 h after exposure): increased significantly
clonogenic survival IC50 ([3]; PSN1, 60 min exposure): 1 kBq/mL
effect on clonogenic survival [3]: far less pronounced
blood clearance, weighed half-life [15]: 1.86 min
tumour uptake [16]: 0.19±0.01 % IA/g
tumour uptake [17]: 0.46±0.01 % IA/g

O=c1c(-c2ccc(O)cc2)coc2cc(O[C@@H]3O[C@H](CO)[C@@H](O)[C@H](O)[C@H]3O)ccc12 [daidzin, reference compound]
uptake of [123I]CC1 on addition of cold blocker [7]: reduced
uptake of [123I]CC1 on addition of cold blocker [8]: reduced
uptake of [123I]CC1 on addition of cold blocker [9]: reduced

COc1c(C)c2c(c(O)c1C/C=C(\C)CCC(=O)OCCN1CCOCC1)C(=O)OC2 [m.mofetil, Mycophenolate mofetil, reference compound]
uptake of [123I]CC1 on addition of cold blocker [7]: reduced
uptake of [123I]CC1 on addition of cold blocker [8]: reduced
uptake of [123I]CC1 on addition of cold blocker [9]: reduced

O=C(c1cc(Cc2n[nH]c(=O)c3ccccc23)ccc1F)N1CCN(C(=O)C2CC2)CC1 [olaparib, reference compound]
effect on clonogenic survival [2]: no effect
effect on clonogenic survival [3]: no effect

CNCc1ccc(-c2[nH]c3cc(F)cc4c3c2CCNC4=O)cc1 [rucaparib, reference compound]
tumour uptake of [123I]CC1 on co-administration of excess blocker ([11]; PSN1 xenografts, 0.5 mg blocker, 2 h, P<0.05): significantly reduced tumour uptake
